Reference: US20250099427A1, “Drug and Method of Treating or Preventing Renal Disease Using Drug” (Showa University, priority 2018, published 2025)

What was measured:
[1] = tested on: Acute Renal Disease (Cisplatin Nephropathy) Animal Model; assay: Cisplatin nephropathy model, histopathological study (HE staining); assay type: in vivo, mouse; details: 10 mg/kg 1 day after cisplatin
Description: In Tables 13 to 15, the experimental results are expressed in mean±standard error. The RT-PCR results were corrected with the amount of β-Actin as an endogenous control gene. With reference to statistically significant difference, an unpaired test between two groups (Student's t-test) was conducted for comparison between two groups, and one-way analysis of variance was conducted and then a Dunnett test was conducted for comparison among multiple groups. Further, in the histopathological study, a Mann-Whitney U test was conducted, and in all cases, a significance level of 5% or less (P<0.05) was regarded as significant difference.
10 mg/kg of SMTP-7 was administered 1 day after administration of cisplatin, and 3 days later, the kidney was isolated by the same method as in the evaluation of real time RT-PCR, and the histopathological study was conducted.
Formalin-fixed kidney was permeated with paraffin using an automatic embedding device to produce a paraffin block. The paraffin block was sliced into 3 μm sections with a microtome, and placed on a slide glass. Then, the sections were stretched with a paraffin stretcher at 52° C., and sufficiently dried overnight in a paraffin melter at 37° C. After deparaffinization and washing with water, the sections were stained with a Mayer's hematoxylin staining solution for 1 minute and washed with running water for 15 minutes. Thereafter, the sections were stained with an eosin staining solution for 45 seconds, and dehydrated with 80% to 100% ethanol, followed by clearing with xylene and sealing with marinol. Each specimen was examined microscopically at a magnification of 50 using an optical microscope. The degree of damage was examined microscopically at a magnification of 100 and 5 fields of view (1 field=2 mm, 5 fields=10 mm) and scored according to the following criteria. • Score 0: No significant change • Score 1: damage range 1 mm or less • Score 2: damage range 1 to 2 mm • Score 3: damage range 2 to 5 mm • Score 4: damage range 5 mm or more

[2] = tested on: Acute Renal Failure Animal Model; assay: Test using acute renal failure animal model (renal ischemia and reperfusion), renal function parameters; assay type: in vivo, mouse; details: for Cer: creatinine clearance; for FENa: fractional excretion of sodium; for KW: kidney weight
Source text: A male ddY strain mouse (30 g) was used as an experimental animal. Under anesthesia with isoflurane, the right flank was incised about 2 cm to expose the kidney. After ligating the renal arteries and veins and the ureter, the right kidney was isolated.
A recovery period of 2 weeks was given, and then an acute renal failure mouse model was produced. Under anesthesia with isoflurane, the left abdomen was incised about 3 cm to expose the left kidney, and the fat around the renal arteries and veins was removed. The blood flow in the left renal arteries and veins was blocked using an atraumatic clip, and the kidney was left in ischemia for 45 minutes. The blood flow was then reperfused by removing the atraumatic clip, the kidney was returned to the abdominal cavity, and the flank was sutured. Mice similarly subjected to the steps other than the ischemia and reperfusion steps using the atraumatic clip were designated as a sham group (eight mice).
After 15 minutes of the initiation of ischemia, the vehicle, SMTP-7, SMTP-27, SMTP-44D, and edaravone were continuously administered to the femoral vein for 30 minutes.
24 hours after the ischemia and reperfusion processes, urine was collected for 24 hours using a metabolic cage, and the urinary output (UF; μL/min/kg) was measured. During collecting urine, only water was freely given. After urine collection, the body weight of each mouse was measured, and blood was collected from the abdominal aorta under anesthesia with isoflurane. After blood collection, the left kidney was isolated and the fat was removed in physiological saline. The kidney weight (KW; mg/g) was measured, and then the kidney was fixed in a 10% neutral buffered formalin solution for Hematoxylin Eosin (HE) staining.
The collected blood was centrifuged at 800×g for 15 minutes at 25° C. to collect serum. Further, the urine collected using a metabolic cage was also used to evaluate renal function. In order to evaluate parameters in the serum, blood urea nitrogen (BUN; mg/dL) was measured using a QuantiChrom Urea Assay Kit (Funakoshi Co., Ltd.). Serum creatinine concentration (Scr; mg/dL) and urinary creatinine concentration (Ucr; mg/dL) were measured using LabAssay (trademark) Creatinine (manufactured by Wako Pure Chemical Industries, Ltd.), and creatinine clearance (Ccr; mL/min/kg) was calculated. The concentrations of sodium in the serum and urine were measured using Fuji Dry Chem 7000 (manufactured by FUJIFILM Corporation), and fractional excretion of sodium (FENa; %) was calculated. Urinary albumin concentration (Ualb; mg/hr/kg) was measured using Albwel M (manufactured by Cosmo Bio Co., Ltd.).
In Table 11, the experimental results are expressed in mean±standard error in eight mice in each group. For comparison among multiple groups, firstly, one-way analysis of variance (ANOVA) was conducted, and then a Bonferroni test was conducted, if significant difference was recognized. Significant difference was recognized with a significance level of less than 5% (P<0.05).

[3] = Score 1: damage range 1 mm or less
[4] = score 0 (no significant change) to 4 (damage range 5 mm or more), N 7
[5] = 0.01 mg/kg continuous femoral vein 30 min from 15 min after start of 45 min ischemia, mean±SE, 8 mice
[6] = 0.1 mg/kg continuous femoral vein 30 min from 15 min after start of 45 min ischemia, mean±SE, 8 mice
[7] = 0.1 mg/kg, acute renal failure model
[8] = 1 mg/kg continuous femoral vein 30 min from 15 min after start of 45 min ischemia, mean±SE, 8 mice
[9] = 1 mg/kg, acute renal failure model
[10] = 10 mg/kg continuous femoral vein 30 min from 15 min after start of 45 min ischemia, mean±SE, 8 mice
[11] = 0.01 mg/kg continuous femoral vein 30 min from 15 min after start of 45 min ischemia, mean±SE, 8 mice, 0.01 mg/kg
[12] = 0.1 mg/kg continuous femoral vein 30 min from 15 min after start of 45 min ischemia, mean±SE, 8 mice, 0.1 mg/kg
[13] = 1 mg/kg continuous femoral vein 30 min from 15 min after start of 45 min ischemia, mean±SE, 8 mice, 1 mg/kg
[14] = 10 mg/kg continuous femoral vein 30 min from 15 min after start of 45 min ischemia, mean±SE, 8 mice, 10 mg/kg

CC(C)=CCC/C(C)=C/CC[C@@]1(C)Oc2c(c(O)cc3c2CN(CCC[C@@H](C(=O)O)N2Cc4c(cc(O)c5c4O[C@](C)(CC/C=C(\C)CCC=C(C)C)[C@@H](O)C5)C2=O)C3=O)C[C@@H]1O [SMTP-7]
Degeneration Necrosis, animals with Score 0 ([1]; Score 0: No significant change): 2/7 | Regeneraed tubules, animals with Score 0 ([1]; Score 0: No significant change): 7/7 | Tublar dilatatuon (Hyoline casts), animals with Score 0 ([1]; Score 0: No significant change): 6/7 | Degeneration Necrosis, animals with Score 1 [1, 3]: 2/7 | Tublar dilatatuon (Hyoline casts), animals with Score 1 [1, 3]: 1/7 | Degeneration Necrosis, animals with Score 2 ([1]; Score 2: damage range 1 to 2 mm): 1/7 | Degeneration Necrosis, animals with Score 3 ([1]; Score 3: damage range 2 to 5 mm): 1/7 | Degeneration Necrosis, animals with Score 4 ([1]; Score 4: damage range 5 mm or more): 1/7 | Histopathological changes in the proximal tubules, result in words ([1]; compared to Control group): the level was lower than that in the Control group and no significant difference was recognized | Degeneration Necrosis, Mean score [1, 4]: 1.6 | Regeneraed tubules, Mean score [1, 4]: 0.0 | Tublar dilatatuon (Hyoline casts), Mean score [1, 4]: 0.1 | BUN [2, 5]: 108.8 ± 26.6 mg/dL | Scr [2, 5]: 0.9 ± 0.2 mg/dL | Ualb ([2]; 0.01 mg/kg, acute renal failure model): 1.8 ± 0.3 mg/h/kg | BUN [2, 6]: 125.8 ± 28.7 mg/dL | Scr [2, 6]: 1.0 ± 0.3 mg/dL | UF [2, 7]: 0.0825 ± 0.0088 mL/min/kg | Ualb [2, 7]: 1.1 ± 0.3 mg/h/kg | BUN [2, 8]: 66.0 ± 11.3 mg/dL | Scr [2, 8]: 0.5 ± 0.1 mg/dL | UF [2, 9]: 0.0623 ± 0.0134 mL/min/kg | Ualb [2, 9]: 0.7 ± 0.2 mg/h/kg | BUN [2, 10]: 44.1 ± 2.9 mg/dL | Scr [2, 10]: 0.4 ± 0.0 mg/dL | Ualb ([2]; 10 mg/kg, acute renal failure model): 0.5 ± 0.1 mg/h/kg | Cer [2, 11]: 1.6 ± 0.3 mL/min/kg | Cer [2, 12]: 1.7 ± 0.4 mL/min/kg | Cer [2, 13]: 2.3 ± 0.4 mL/min/kg | Cer [2, 14]: 3.1 ± 0.2 mL/min/kg | FENa [2, 11]: 1.8±0.8% | FENa [2, 12]: 2.3±1.0% | FENa [2, 13]: 1.0±0.2% | FENa [2, 14]: 0.7±0.1% | KW [2, 11]: 14.5 ± 0.6 mg/g | KW [2, 12]: 13.6 ± 1.0 mg/g | KW [2, 13]: 11.2 ± 0.8 mg/g | KW [2, 14]: 11.1 ± 0.4 mg/g | Ualb ([2]; urinary albumin, 0.01 mg/kg continuous femoral vein 30 min from 15 min after start of 45 min ischemia, mean±SE, 8 mice): 1.8 ± 0.3 mg/h/kg | Ualb ([2]; urinary albumin, 0.1 mg/kg continuous femoral vein 30 min from 15 min after start of 45 min ischemia, mean±SE, 8 mice): 1.1 ± 0.3 mg/h/kg | Ualb ([2]; urinary albumin, 1 mg/kg continuous femoral vein 30 min from 15 min after start of 45 min ischemia, mean±SE, 8 mice): 0.7 ± 0.2 mg/h/kg | Ualb ([2]; urinary albumin, 10 mg/kg continuous femoral vein 30 min from 15 min after start of 45 min ischemia, mean±SE, 8 mice): 0.5 ± 0.1 mg/h/kg
